# Tests used:
# [1] = tested on: anti-OVA IgE production in BALB/c mice; assay: Suppressive effect on the IgE production against ovalbumin (OVA): anti-OVA IgE antibody titer (PCA titer); format: in vivo, mouse; settings: BALB/c mice immunized with OVA, 40 mg/kg orally for 10 days; titer = highest 2^n serum dilution positive in rat PCA
# Protocol: Suppressive effect on the IgE Production Against ovalbumin (OVA)
# BALB/c mice (female, 8-10 weeks old) and Wistar rats (female, 8-10 weeks old) which were bought from Japan SLC, Inc. (Shizuoka) were used.
# BALB/c mice were immunized by an intraperitoneal administration of 0.2 ml suspension of 2 μg of ovalbumin (OVA) and 2 mg of aluminium hydroxide gel in physiological saline. After 10 days, blood was collected from hearts, then sera were separated and stocked at −40° C. till the measurement of IgE antibody titer.
# After the compound of the present invention was dissolved or suspended in N,N-dimethylacetoamide, the mixture was diluted 20 times with miglyol 812 neutral oil. The obtained solution was orally administered to mice at 0.1 ml per mouse (dose 40 mg/kg). The administration was continued for 10 days from the immunizing day to the day before the blood collection.
# The obtained mouse serum was 2-fold diluted with physiological saline, then each 50 μl of the solution was intradermally injected at dorsal skin of Wistar rats which previously hair cut. After 24 hours, a passive cutaneous anaphylaxis reaction (PCA) was induced by an intravenous injection of 0.5 ml of physiological saline containing 1 mg of OVA and 5 mg of Evans' blue dye. The rats were sacrified 30 minutes later and the highest dilution giving bluing with a diameter of 5 mm or more was recorded as the PCA titer. […]
smiles,measurement,setting,value
CC(C)=CCNc1ccc(-c2cc(C)c(-c3ccc(OCC=C(C)C)nc3)cc2C)c(F)c1 [Ib-250],melting point,,87 to 88 °C
same,PCA Titer,[1],0

# Source: US6562817B1, “Tricyclic compound” (Shionogi & Co., Ltd., priority 1998, dated 2003)
